These results are taken from patent publication US3995055A, “Method for treating peptic ulcers” (priority 1975, dated 1976).

Entries after “also recorded” stand apart in the source; their conditions may differ. Counter-ions that a name gives are not always drawn.

Series [1] has as its system Shay ulcers. Kind of series: Shay Ulcer Test by Intraperitoneal Administration. Type of series: in vivo, Donryu rats. The following applies: Rattus norvegicus, ip, 18 h, read-out: Inhibitory Ratio; for inhibition in vivo at 350 mg/kg: 350 mg/Kg intraperitoneally in 0.5% CMC. The method, then:
(§1) Donryu rats each weighing 200 to 240 g (six in each group) were starved for 48 hours, and ligated at a portion of the duodenum near the pylorus by the method of Shay et al (see Gastroenterology, 54, 43 (1945)). Immediately after the ligation, DV-1006 was orally administered to the rats at a dosage of 300 mg/Kg. After 18 hours, the abdomen of each of the rats was incised, and the stomach was removed.
Some typical compounds of formula (I) were tested on Shay ulcers in the same way as described in Example 2 except that each of the compounds was suspended in a 0.5% aqueous solution of carboxymethyl cellulose and administered intraperitoneally.

Series [2] concerns gastric ulcers. Kind of series: Clinical test in gastric ulcer patients. Type of series: in vivo. The method, then:
Further, in order to confirm the anti-ulcer activities of the compounds of the general formula (I), clinical tests were also conducted using DV-1006 as a representative example of the compounds of the general formula (I). These clinical tests were performed on patients with gastric ulcers at National Zentsuji Hospital in Tokushima Prefecture, Japan.
30 gastric ulcer patients at the Internal Treatment Department of National Zentsuji Hospital in Tokushima Prefecture, Japan, who had been so diagnosed by X-ray and endoscopes, were treated for 8 weeks using an oral administration of DV-1006 at a dosage of 200 mg three times per day. At the end of the 8-week period, 21 patients were completely cured (70%), the condition of 7 patients had been alleviated (23%).

Series [3] in a line: General anticholinergic activities. The source says:
(§2) Incidentally, it appears from the above table that anticholinergic agents produce […] those produced by DV-1006. […] From a pharmacological standpoint, DV-1006 has the activity selectively inhibiting the secretion of pepsin without affecting acidity and the activity of pepsin itself.

The subject of series [4] is drug ulcers. Nature of the series: Drug Ulcer Test (indomethacin, aspirin, phenylbutazone). The following applies: for Inhibitory Ratio, Aspirin ulcer: aspirin 300 mg/Kg; for Inhibitory Ratio, Indomethacin ulcer: indomethacin 25 mg/Kg; for Inhibitory Ratio, Phenylbutazone ulcer: phenylbutazone 200 mg/Kg; for Effectiveness on Drug Ulcer (defensive factors): Table 1. It is filed as in vivo, rats. As to the method: Female rats each weighing about 150 g (5 in each group) were starved for 20 hours, and then DV-1006 was administered to the rats. After one hour, 25 mg/Kg of indomethacin, 300 mg/Kg of aspirin and 200 mg/Kg of phenylbutazone, respectively, were administered orally to the rats and the rats were further starved for 5 hours. The stomach of each of the rats was removed, and the ulcer index was measured.
For comparison, the above procedure was repeated except that gefarnate and aluminum sucrose sulfate were used in their basic customary dosages.

Series [5] has as its system Shay ulcers. Kind of series: Shay Ulcer Test (oral administration). It is filed as in vivo, Donryu rats. The settings on record: for inhibitory ratio (Shay ulcer): 18 hours after ligation; for Effectiveness on Shay Ulcer (aggressive factors): Table 1. The method, then: as §1
In the same way as described above, gefarnate, a conventional anti-ulcer agent, was administered to the rats at a dosage of 100 mg/Kg.

Series [6] has as its system pepsin secretion. Nature of the series: Pepsin Secretion Inhibition Test (beef bouillon pot-au-feu soup stimulating test). It is filed as in vivo, Heidenhain pouch dogs. The settings on record: 150 mg/Kg orally, second stimulation 75 minutes later; FIG. 4. The method, then: After oral administration (first stimulation) of 70 ml of a mixture (100 ml) of 6 g of beef bouillon and 6 g of pot-au-feu soup, gastric juice was extracted every 15 minutes. When the secretion of gastric juice returned almost to the value before the stimulation, DV-1006 was orally administered at a dosage of 150 mg/Kg. The second stimulation was given 75 minutes later in the same way as in the first stimulation, and the amount of gastric juice secreted and the amount of pepsin secreted were measured [by the modified method of Anson-Maskey (see J. Gen. Physiol., 16, 59 (1932))] with the passage of time.

Series [7] deals with carbachol stimulation. Kind of series: Carbachol stimulation in the Gosh and Schild method. Type of series: in vivo.
Text: as §2

Series [8] deals with gastric juice. Kind of series: Mode of activity: action on gastric juice. More on the design: key: the symbol (+) shows that a particular agent has the indicated activity; the symbol (-) shows that the particular agent does not have the indicated activity; symbol (±) shows that the particular agent has a slight activity. The source says:
As stated above, DV-1006 acts very strongly both on the aggressive factors and the defensive factors as compared with conventional anti-ulcer agents. […] In the treatment of peptic ulcers, the action of an agent on the gastric juice can be classified roughly into the following five categories: […]

Series [9] has as its system acetic ulcers. Nature of the series: 10% Acetic Acid Ulcer Test. It is filed as in vivo, Wistar rats. The following applies: for Effectiveness on Acetic Ulcer (defensive factors): Table 1. The method, then:
Each of the drugs shown in FIG. 1 was orally administered to the rats once a day for 8 days starting on the date on which the acetic acid was injected. On the ninth day the rats were killed under ether anaesthesia. The stomach of each rat was removed, and opened along the greater curvature. The ulcer index was measured by means of slide calipers, and then the glandular stomach tissue was homogenized by adding a suitable amount of a physiological salt solution, and centrifuged for 20 minutes at a rate of 12,000 rpm.

Series [10] deals with clamping-cortisone ulcers. Kind of series: Clamping-Cortisone Ulcer Test. Type of series: in vivo, rats. The following applies: for Effectiveness on Clamping-Cortisone Ulcer (defensive factors): Table 1. As to the method:
(§3) Each of the drugs shown in FIG. 2 was administered orally once in a day for 14 days starting on the day on which the aluminum metal plate was removed. On the fifteenth day, the rats were killed under ether anaesthesia, and the ulcer index and the mucopolysaccharase activity in the stomach tissue were measured.
Then, 5 mg/Kg of hydrocortisone acetate was intramuscularly injected into the rats once a day for 7 days starting on the day on which the aluminum metal plate was removed. Each of the agents shown in FIG. 3 was administered orally to the rats once a day for 11 days starting on the day on which the administration of hydrocortisone acetate was stopped.

Series [11] deals with clamping ulcers. Kind of series: Clamping Ulcer Test. The settings on record: for Effectiveness on Clamping Ulcer (defensive factors): Table 1. It is filed as in vivo, Wistar male rats. As to the method:
as §3

As for `NC[C@H]1CC[C@H](C(=O)Oc2ccccc2)CC1`, the inhibition in vivo at 350 mg/kg in series [1] stood at 84%.
Take `NC[C@H]1CC[C@H](C(=O)Oc2ccc(C=CC(=O)O)cc2)CC1`: the inhibition in vivo at 350 mg/kg in [1] is 76%.
Same read-out and setting: under `COc1cc(C=O)ccc1OC(=O)[C@H]1CC[C@H](CN)CC1` stands 84%.
On to `NC[C@H]1CC[C@H](C(=O)Oc2ccc(-c3ccccc3)cc2)CC1`, for which the inhibition in vivo at 350 mg/kg in [1] stood at 58%.
With `NC[C@H]1CC[C@H](C(=O)Oc2ccc3ccccc3c2)CC1`, the inhibition in vivo at 350 mg/kg in [1] amounted to 84%.
`NC[C@H]1CC[C@H](C(=O)Oc2ccc(C(=O)O)cc2)CC1`: the inhibition in vivo at 350 mg/kg in series [1] amounted to 71%.
Take `NC[C@H]1CC[C@H](C(=O)Oc2ccc(CC(N)C(=O)O)cc2)CC1` (stereo partly shown): in series [1], the inhibition in vivo at 350 mg/kg was 71%.
On to `NC[C@H]1CC[C@H](C(=O)Oc2ccc(Cl)cc2)CC1`, for which, in [1] (175 mg/Kg intraperitoneally in 0.5% CMC), the inhibition in vivo at 175 mg/kg is 62%.
On to `NC[C@H]1CC[C@H](C(=O)Oc2ccc(CCC(=O)O)cc2)CC1` [DV-1006, 4'-(2-carboxyethyl)phenyl.trans-4-aminomethylcyclohexane carboxylate], for which the side-effects in patients entry in [2] (oral 200 mg three times per day, 8 weeks) was “No side-effects were observed”. Besides, the “curing effect on peptic ulcers” value in series [2] (orally for several days at 300 to 1200 mg/day) is recorded as “very marked curing effect”. For the same compound, the general anticholinergic activities entry in [3] is reported as “does not show general anticholinergic activities”. In series [4] (300 mg/Kg p.o.), the “Inhibitory Ratio, Aspirin ulcer” value was determined as 65.3%; the “Inhibitory Ratio, Indomethacin ulcer” value is recorded as 30.2%; the “Inhibitory Ratio, Phenylbutazone ulcer” value is given as 70.0%. The “Effectiveness on Drug Ulcer (defensive factors)” value (shortened to “Effectiveness on Drug Ulcer”) in series [4] was “+”. Moreover, in series [5] (300 mg/Kg orally, method of Adami et al.), the “inhibitory ratio (Shay ulcer)” value stood at 100%. Besides, the “Effectiveness on Shay Ulcer (aggressive factors)” value (“Effectiveness on Shay Ulcer” below) in series [5] is recorded as “+”. Moreover, in series [6], the “amount of gastric juice secreted” value is on record as “reduced” and the pepsin secretion entry is on record as “markedly inhibited”. Besides, the “inhibitory activity on carbachol stimulation” value in series [7] was “does not exhibit any inhibitory activity”. The “Action on Gastric Juice: Amount of Gastric Juice” value in [8] (activity of controlling gastric juice) was “+”. For the same compound, in series [8] (inhibitory action on acids), the “Action on Gastric Juice: Acids Activity” value is given as “-”. Moreover, in series [8] (inhibitory action on the activity of pepsin itself), the “Action on Gastric Juice: Pepsin Activity” value is given as “-”. Also, the “Action on Gastric Juice: Acid Secretion” value in series [8] (inhibitory action on the secretion of acids) was “±”. The “Action on Gastric Juice: Pepsin Secretion” value in series [8] (inhibitory action on the secretion of pepsin) is reported as “+”. Further, in series [9] (FIG. 1), the “dose-response of action on acetic acid ulcers” value is “showed a dose-response”. Moreover, the “Effectiveness on Acetic Ulcer (defensive factors)” value (shortened to “Effectiveness on Acetic Ulcer”) in [9] is given as “+”. Further, in [9] (glandular stomach tissue, ninth day, FIG. 1), the “activity of the mucopolysaccharase in the ulcer portion” value is listed as “reduced”. Besides, the “action on ulcers caused by acetic acid (visual ulcer indices)” value in series [9] (oral once a day for 8 days, ninth day, FIG. 1) was “marked inhibitory action; also recorded: especially strong action”. For the same compound, the “Effectiveness on Clamping-Cortisone Ulcer (defensive factors)” value in series [10] is recorded as “+”. The “action on clamping-cortisone ulcers” value in series [10] (model of chronic ulcers) is given as “especially strong action”. The “action on the activity of β-glucuronidase in stomach tissue” value in series [10] (oral once a day for 11 days, twentieth day, FIG. 3) is listed as “especially significant inhibitory action”. Moreover, in series [11], the “Effectiveness on Clamping Ulcer (defensive factors)” value (from here on “Effectiveness on Clamping Ulcer”) is “+”. For the same compound, in [11] (oral once a day for 14 days, fifteenth day, FIG. 2), the “action on β-glucuronidase in stomach tissue” value is recorded as “especially significant inhibitory action”.
`CN1[C@@H]2CC[C@H]1C[C@@H](OC(=O)C(CO)c1ccccc1)C2` (stereo partly shown) [atropine sulfate]: the “Effectiveness on Drug Ulcer” value in series [4] is on record as “-”. In addition, the “Effectiveness on Shay Ulcer” value in [5] is listed as “+”. Also, the “Effectiveness on Acetic Ulcer” value in series [9] is listed as “+”.
Turning to `NC[C@H]1CC[C@H](C(=O)Oc2ccc(CCC(=O)O)cc2)CC1` [drawing 3], the inhibition in vivo at 350 mg/kg in [1] worked out at 70%.
On to `CC(C)=CCC/C(C)=C/CC/C(C)=C/CCC(=O)OC/C=C(\C)CCC=C(C)C` [gefarnate], for which, in series [4] (100 mg/Kg p.o.), the “Inhibitory Ratio, Aspirin ulcer” value came out at 42.8%; the “Inhibitory Ratio, Indomethacin ulcer” value was 29.0%; the “Inhibitory Ratio, Phenylbutazone ulcer” value came to 31.5%. The “Effectiveness on Drug Ulcer” value in series [4] was “+”. In addition, the “inhibitory ratio (Shay ulcer)” value in [5] (100 mg/Kg orally) stood at 83%. The “Effectiveness on Shay Ulcer” value in series [5] is recorded as “-”. The “Effectiveness on Acetic Ulcer” value in series [9] is on record as “-”. In series [10], the “Effectiveness on Clamping-Cortisone Ulcer (defensive factors)” value is listed as “+”. The “Effectiveness on Clamping Ulcer” value in series [11] was “+”.
On to aluminum sucrose sulfate, for which, in series [4] (1000 mg/Kg p.o.), the “Inhibitory Ratio, Aspirin ulcer” value is listed as 38.6%; the “Inhibitory Ratio, Indomethacin ulcer” value was 40.0%; the “Inhibitory Ratio, Phenylbutazone ulcer” value is on record as 38.0%. The “Effectiveness on Drug Ulcer” value in series [4] is listed as “+”. The “Effectiveness on Shay Ulcer” value in [5] is listed as “+”. Also, the “Effectiveness on Acetic Ulcer” value in series [9] is listed as “+”. For the same compound, the “Effectiveness on Clamping-Cortisone Ulcer (defensive factors)” value in [10] was “-”. For the same compound, the “Effectiveness on Clamping Ulcer” value in series [11] is recorded as “+”.
